Experiments:
[1] = xn = mol fraction of the nth substance listed; details: 318.15 K, 101 kPa, Liquid
[2] = excess molar enthalpy (molar enthalpy of mixing); xn = mol fraction of the nth substance listed; details: 318.15 K, 101 kPa, Liquid

CCCCCCCCCCCCC [tridecane] + CCOC(=O)CC
Details	excess molar enthalpy [kJ/mol]	excess molar volume [m3/mol]
[1], x2 = 0.0553	–	2.18e-07
[1], x2 = 0.1314	–	4.88e-07
[1], x2 = 0.2286	–	7.67e-07
[1], x2 = 0.3064	–	9.41e-07
[1], x2 = 0.3982	–	1.105e-06
[1], x2 = 0.4702	–	1.178e-06
[1], x2 = 0.5353	–	1.203e-06
[1], x2 = 0.6003	–	1.177e-06
[1], x2 = 0.6545	–	1.134e-06
[1], x2 = 0.7057	–	1.072e-06
[1], x2 = 0.7518	–	9.93e-07
[1], x2 = 0.7964	–	8.81e-07
[1], x2 = 0.8358	–	7.55e-07
[1], x2 = 0.8729	–	6.38e-07
[1], x2 = 0.9066	–	4.97e-07
[1], x2 = 0.9396	–	3.51e-07
[1], x2 = 0.9702	–	2.08e-07
[2], x2 = 0.0944	0.467	–
[2], x2 = 0.189	0.842	–
[2], x2 = 0.282	1.15	–
[2], x2 = 0.366	1.36	–
[2], x2 = 0.4354	1.49	–
[2], x2 = 0.4882	1.54	–
[2], x2 = 0.5339	1.55	–
[2], x2 = 0.5841	1.55	–
[2], x2 = 0.6332	1.51	–
[2], x2 = 0.6564	1.47	–
[2], x2 = 0.6775	1.43	–
[2], x2 = 0.6925	1.4	–
[2], x2 = 0.7364	1.28	–
[2], x2 = 0.7802	1.13	–
[2], x2 = 0.8254	0.955	–
[2], x2 = 0.8702	0.758	–
[2], x2 = 0.9163	0.53	–
[2], x2 = 0.9613	0.266	–

CCCCCCCCCCC [undecane] + CCCOC(=O)CC
Details	excess molar enthalpy [kJ/mol]	excess molar volume [m3/mol]
[1], x2 = 0.0413	–	1.53e-07
[1], x2 = 0.0923	–	3.2e-07
[1], x2 = 0.1761	–	5.43e-07
[1], x2 = 0.2561	–	7.24e-07
[1], x2 = 0.3307	–	8.39e-07
[1], x2 = 0.3986	–	9.06e-07
[1], x2 = 0.4638	–	9.37e-07
[1], x2 = 0.5278	–	9.47e-07
[1], x2 = 0.587	–	9.43e-07
[1], x2 = 0.6412	–	8.99e-07
[1], x2 = 0.6944	–	8.36e-07
[1], x2 = 0.744	–	7.6e-07
[1], x2 = 0.7913	–	6.62e-07
[1], x2 = 0.8364	–	5.52e-07
[1], x2 = 0.8799	–	4.45e-07
[1], x2 = 0.9196	–	2.93e-07
[1], x2 = 0.9603	–	1.75e-07
[2], x2 = 0.0636	0.279	–
[2], x2 = 0.1368	0.533	–
[2], x2 = 0.2052	0.751	–
[2], x2 = 0.2811	0.954	–
[2], x2 = 0.355	1.09	–
[2], x2 = 0.4208	1.16	–
[2], x2 = 0.4796	1.18	–
[2], x2 = 0.5347	1.19	–
[2], x2 = 0.5876	1.15	–
[2], x2 = 0.6318	1.11	–
[2], x2 = 0.6804	1.03	–
[2], x2 = 0.7305	0.916	–
[2], x2 = 0.7842	0.787	–
[2], x2 = 0.8388	0.622	–
[2], x2 = 0.8946	0.437	–
[2], x2 = 0.9488	0.23	–

Reference: the NIST ThermoML archive (doi:10.1016/j.jct.2004.12.014)
